From patent publication US20180142211A1, “METHODS OF MESENCHYMAL STEM CELL MOBILIZATION AND EXPANSION” (Biokine Therapeutics Ltd, priority 2015, published 2018)
pKd: −log10 of the molar value. Entries after “also recorded” stand apart in the source; their conditions may differ.

Key:
white blood cells (WBC) = test: Phase I study: WBC mobilization to peripheral blood; assay type: in vivo, human; conditions: 4 hours post dose, baseline 6.31
Source text: (§1) Mean CD34+ count at baseline was 5.81/μL.

HSC (CD34+ cells) = test: Phase I study: mobilization of HSC (CD34+ cells); assay type: in vivo, human
Source text: as §1

[1] = test system: Mesenchymal Stem Cells (MSCs); test: Phase I study: MSC mobilization, MesenCult assay; assay type: in vivo, human; conditions: for MSC mobilization into peripheral blood, single agent: MesenCult
Procedure: To evaluate the number of MSCs in the blood, a MesenCult assay was used at different time points following BL-8040 administration (0.75 mg/Kg FIGS. 1-2, or 1 mg/Kg FIGS. 3-4)) to healthy subjects-as described above.
White blood cells (WBCs) obtained from 100 μl blood, were plated in MesenCult medium (2 ml).
The number of MSCs colonies and MS cells were visually scored 15 days later, using a light microscope, and the frequency of MSC colonies and MSCs was calculated.

HPC colony forming cells = test: Phase I study: HPC colony forming cell mobilization; assay type: in vivo, human; conditions: 4-8 hr post injection
Source text: as §1

[2] = test system: T cells, B cells and NK cells; test: Phase I study: FACS analysis of lymphocyte mobilization; assay type: in vivo, human
Source text: as §1

[3] = human, in vivo
Procedure: To test the effect of BL-8040 (SEQ ID NO: 1) on mesenchymal stem cell mobilization a two-part study was performed. The first part of the study was randomized, double-blind, placebo-controlled dose escalation study. In each cohort, six volunteers were administrated twice (altogether) on day one and two with BL-8040 (First cohort 0.5 mg/kg, Second cohort 0.75 mg/kg and Third 1.0 mg/kg) and 2 were administrated with placebo. […] BL-8040's safety, tolerability and pharmacokinetic profile were also evaluated on this part.

CXCR4 [4] = target: T1, CXCR4 (Homo sapiens, UniProt P61073); conditions: cited from earlier work
Target sequence in this assay (P61073 whole entry, species assumed): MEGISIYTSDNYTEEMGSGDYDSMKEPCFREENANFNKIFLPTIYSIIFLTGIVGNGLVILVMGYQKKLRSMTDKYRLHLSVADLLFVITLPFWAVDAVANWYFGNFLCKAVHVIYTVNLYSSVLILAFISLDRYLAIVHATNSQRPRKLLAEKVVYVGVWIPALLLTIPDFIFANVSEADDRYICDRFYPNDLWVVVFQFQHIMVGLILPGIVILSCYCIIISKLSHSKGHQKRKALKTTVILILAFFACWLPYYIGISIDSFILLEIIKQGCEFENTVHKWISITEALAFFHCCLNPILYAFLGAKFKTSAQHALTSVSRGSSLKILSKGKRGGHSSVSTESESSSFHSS

[5] = test system: long term repopulating cells; conditions: mice, single injection; cited from earlier work
CD34 (+) cells = conditions: MM patients, combined with G-CSF, single administration; cited from earlier work
CXCR4 [6] = target: T1, CXCR4; test: Phase I study: receptor occupancy and pharmacodynamic effect; assay type: in vivo; set-up: endogenous in cells; host or cells: peripheral blood cells (CD34+, lymphocyte, mononuclear populations) of healthy volunteers; conditions: post dosing
Source text: as §1
Target sequence in this assay (P61073 whole entry): as the sequence (P61073 whole entry, species assumed) above

MSCs = conditions: without cytokines such as PDGF, VEGF, IGF-1 or SCF; cited from earlier work

Molecule: 4F-benzoyl-Arg-Arg-Nal-Cys-Tyr-Cit-Lys-DLys-Pro-Tyr-Arg-Cit-Cys-Arg-NH2 [BL-8040]
- mean WBC count (white blood cells (WBC)): 2.968e+10 L⁻¹
- mean CD34 count (HSC (CD34+ cells); 0.5 mg/kg, 4 hour post the second dose, placebo 9): 38 µL⁻¹
- mean CD34 count (HSC (CD34+ cells); 0.5 mg/kg, four hours post dose, baseline 5.81/μL, placebo 8): 37 µL⁻¹
- mean CD34 count (HSC (CD34+ cells); 0.75 mg/kg, 4 hour post the second dose, placebo 9): 46 µL⁻¹
- mean CD34 count (HSC (CD34+ cells); 0.75 mg/kg, four hours post dose, baseline 5.81/μL, placebo 8): 31 µL⁻¹
- mean CD34 count (HSC (CD34+ cells); 1 mg/kg, 4 hour post the second dose, placebo 9): 58 µL⁻¹
- CD34+ count in all subjects (HSC (CD34+ cells); 1 mg/kg, 4 hours post single administration, all subjects): more than 20 CD34+/μL
- mean CD34 count (HSC (CD34+ cells); 1 mg/kg, four hours post dose, baseline 5.81/μL, placebo 8): 35 µL⁻¹
- mobilization of HSC (CD34+ cells) (HSC (CD34+ cells); across all doses tested): Dramatic mobilization
- mobilization of Mesenchymal Stem Cells (MSCs) ([1]; 4-8 hr post injection): rapid mobilization of MSCs
- MSC mobilization into peripheral blood, single agent ([1]; Cohort 2 (0.75 mg/Kg), 15 days culture (FIGS. 1-2), 0.75 mg/kg): mobilizes mesenchymal stem cells (MSCs) into peripheral blood (PB); also recorded: mobilizes MSCs into the PB
- MSC mobilization into peripheral blood, single agent ([1]; Cohort 3 (1 mg/Kg), 15 days culture (FIGS. 3-4), 1 mg/kg): mobilizes mesenchymal stem cells (MSCs) into peripheral blood (PB); also recorded: mobilizes MSCs into the PB
- mobilization of HPC colony forming cells (HPC colony forming cells): rapid mobilization
- mobilization of T cells, B cells and NK cells [2]: substantial mobilization
- appearance in plasma [3]: rapid
- half-life [3]: short
- off-rate of the receptor (CXCR4 [4]): slow off-rate
- pKd (CXCR4 [4]; high affinity, read-out: affinity of binding to CXCR4): 8.70 to 9.00
- mobilization of long term repopulating cells for transplantation [5]: sufficient to mobilize enough long term repopulating cells for transplantation
- stem cell mobilization (CD34 (+) cell collection in one aphaeresis procedure) (CD34 (+) cells): efficient stem cell mobilizer
- duration of receptor occupancy and pharmacodynamics effect (CXCR4 [6]): ≥ 24 h

Molecule: c1cc(CN2CCCNCCNCCCNCC2)ccc1CN1CCCNCCNCCCNCC1 [AMD3100]
- MSC mobilization by the agent alone (MSCs): not sufficient to mobilize MSCs
